Among the test systems are 786-0; COLO 205; EKVX; HCC 2998; HT-29; K562; MCF7; MOLT-4; NCI-H23; NCI-H522; OVCAR-4; RPMI-8226; SF-268; SF-539; SK-MEL-2; SN12C; SNB-19; T47D; UACC-62; Hs-578T.
What all share (experiment): NCI tumour cell line growth inhibition, 48 h

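Tested at 5 concentrations; 48 h exposure; 96-well plates; endpoints linearly interpolated, else capped at highest concentration. GI50 = concentration required for 50% inhibition of growth.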 Active and inactive are the calls of the source. Rule as the data show it: active = GI50 up to about 1.1 µM and inactive = higher.

Turning to `O=C1/C(=C/c2ccccc2)CCc2ccc(Cl)nc21`, the GI50 in the test with 786-0 is 7.18 µM (inactive); in the test with COLO 205, 19.7 µM (inactive); in the test on EKVX, 17.9 µM (inactive); in the test on HCC 2998, 17 µM (inactive); in the test on HT-29, 1.92 µM (inactive); in the test with K562 it was 2.17 µM (inactive). Also, the GI50 with MCF7 was 1.79 µM (inactive); in the test with MOLT-4, 2.28 µM (inactive); in the test on NCI-H23, 16.6 µM (inactive); in the test with NCI-H522, 2.76 µM (inactive); in the test on OVCAR-4, 22.5 µM (inactive); with RPMI-8226, 2.84 µM (inactive). Besides, the GI50 in the test with SF-268 is 12.1 µM (inactive); in the test with SF-539, 3.61 µM (inactive); with SK-MEL-2, 16.7 µM (inactive); in the test with SN12C, 6.03 µM (inactive); with SNB-19, 15 µM (inactive); in the test on T47D it was 4.85 µM (inactive). The GI50 in the test with UACC-62 is 10.4 µM (inactive).

As to `O=C(NC(Cc1ccccc1)P(=O)(O)c1ccccc1)OCc1ccccc1` (stereo not drawn), the GI50 in the test with 786-0, with COLO 205, in the test on EKVX, in the test on HT-29, in the test with Hs-578T and in the test with K562 was > 100 µM (inactive) in each case. Further, the GI50 with MCF7, with MOLT-4, in the test with NCI-H23, in the test with NCI-H522, in the test on OVCAR-4 and in the test on RPMI-8226 was > 100 µM (inactive) each time. Also, the GI50 with SF-268, in the test on SN12C, in the test on SNB-19, with T47D and in the test on UACC-62 was > 100 µM (inactive) in each case.

On to `CCc1n[nH]c(=O)n1/N=C(\C)c1ccc([N+](=O)[O-])cc1`, for which the GI50 with 786-0 was > 100 µM (inactive); in the test with COLO 205 it was 46.5 µM (inactive); in the test on EKVX it was > 100 µM (inactive); in the test with HT-29, 36.6 µM (inactive); in the test with Hs-578T, 92.3 µM (inactive); in the test with K562, 97.7 µM (inactive). For the same compound, the GI50 in the test on MCF7 was 30.2 µM (inactive); in the test with MOLT-4 it was > 100 µM (inactive); in the test on NCI-H23 it was 66.8 µM (inactive); with OVCAR-4, > 100 µM (inactive); with RPMI-8226, > 100 µM (inactive); with SF-268, 26.3 µM (inactive). In addition, the GI50 is > 100 µM (inactive) in the test with SK-MEL-2; 54.7 µM (inactive) in the test with SN12C; > 100 µM (inactive) in the test on SNB-19; > 100 µM (inactive) with T47D; > 100 µM (inactive) in the test with UACC-62.

As to `O=c1cc(/N=N/c2ccc(O)cc2)[nH]c(=O)[nH]1`, the GI50 in the test with 786-0 is 39.8 µM (inactive); in the test on COLO 205, > 100 µM (inactive); in the test with EKVX, > 100 µM (inactive); with HCC 2998, 29.7 µM (inactive); in the test with HT-29, 67.8 µM (inactive); with K562 it was > 100 µM (inactive). Also, the GI50 with MCF7 was > 100 µM (inactive); in the test with MOLT-4, > 100 µM (inactive); in the test on NCI-H23, > 100 µM (inactive); in the test with NCI-H522 it was 31.7 µM (inactive); in the test with OVCAR-4 it was > 100 µM (inactive); with RPMI-8226, > 100 µM (inactive). Moreover, the GI50 in the test on SF-268 was 40.5 µM (inactive); in the test with SF-539, 53.5 µM (inactive); in the test on SK-MEL-2 it was > 100 µM (inactive); with SN12C, 66.7 µM (inactive); in the test on SNB-19, > 100 µM (inactive); in the test on UACC-62, 60.7 µM (inactive).

With `COC(=O)C([C@H]1CC[C@H](OCc2ccccc2)[C@@]1(O)COCc1ccccc1)C(C)(O)CCc1ccccc1` (stereo partly drawn), the GI50 was 12.9 µM (inactive) in the test on 786-0; 12.2 µM (inactive) with COLO 205; 8.57 µM (inactive) in the test with EKVX; 14 µM (inactive) with HCC 2998; 4.55 µM (inactive) in the test on HT-29; 8.15 µM (inactive) in the test on K562. The GI50 was 10.1 µM (inactive) in the test with MCF7; 3.63 µM (inactive) in the test with MOLT-4; 15.4 µM (inactive) with NCI-H23; 8.07 µM (inactive) in the test on NCI-H522; 17.1 µM (inactive) with OVCAR-4; 9.89 µM (inactive) in the test with RPMI-8226. For the same compound, the GI50 with SF-268 was 4.01 µM (inactive); with SF-539, 15.4 µM (inactive); in the test with SK-MEL-2, 12.2 µM (inactive); in the test on SN12C it was 5.13 µM (inactive); with SNB-19, 26.5 µM (inactive); with UACC-62, 13.2 µM (inactive).

In the case of `CC(=O)O[C@H]1CC[C@@]2(C)C(=CC[C@@H]3[C@@H]2CC[C@]2(C)C(=N/O)/C(=C/c4ccc([N+](=O)[O-])cc4)C[C@@H]32)C1`, the GI50 is 4.89 µM (inactive) with 786-0; 2.29 µM (inactive) with COLO 205; 5.43 µM (inactive) in the test on HT-29; 2.39 µM (inactive) in the test on Hs-578T; 3.1 µM (inactive) in the test with K562; 3.58 µM (inactive) in the test on MOLT-4. In addition, the GI50 was 2.31 µM (inactive) in the test on NCI-H23; 2.08 µM (inactive) in the test on NCI-H522; 17 µM (inactive) in the test on OVCAR-4; 1.06 µM (active) in the test with RPMI-8226; 3.66 µM (inactive) in the test on SF-268; 29.3 µM (inactive) with SF-539. The GI50 in the test on SK-MEL-2 was 3.53 µM (inactive); in the test on SN12C, 5.5 µM (inactive); with SNB-19, 2.94 µM (inactive); in the test with T47D, 0.338 µM (active); in the test on UACC-62 it was 1.76 µM (inactive).

Take `CCOC(=O)N1c2c(c3ccccc3n2C(=O)OCC)C(=O)C(OC)N1C(=O)OCC` (stereo not drawn): the GI50 in the test on 786-0 is 43.2 µM (inactive); in the test with COLO 205, 15.5 µM (inactive); with EKVX it was 22 µM (inactive); with HCC 2998, 33.3 µM (inactive); in the test on HT-29 it was 30.5 µM (inactive); with Hs-578T, 22.5 µM (inactive). Further, the GI50 in the test with K562 is 21.1 µM (inactive); in the test with MCF7, 34.3 µM (inactive); in the test with MOLT-4, 21.6 µM (inactive); in the test with NCI-H23, 44.3 µM (inactive); in the test on NCI-H522, 13.3 µM (inactive); in the test on OVCAR-4, 41.9 µM (inactive). The GI50 in the test with RPMI-8226 is 23.9 µM (inactive); in the test with SF-539, 24.6 µM (inactive); with SK-MEL-2, 16 µM (inactive); in the test on SN12C it was 28.8 µM (inactive); in the test on SNB-19 it was 41.4 µM (inactive); in the test with UACC-62 it was 40.1 µM (inactive).

`C[C@H](CCC(=O)O)[C@H]1CC[C@H]2[C@@H]3[C@@H](O)C[C@@H]4C[C@H](O)CC[C@]4(C)[C@H]3CC[C@]12C` [URSODIOL]: the GI50 in the test with 786-0 is > 100 µM (inactive); in the test on COLO 205 it was > 100 µM (inactive); with EKVX, > 100 µM (inactive); with HCC 2998, > 100 µM (inactive); in the test on HT-29, > 100 µM (inactive); in the test on K562, 72.8 µM (inactive). Moreover, the GI50 with MCF7 was > 100 µM (inactive); with MOLT-4, 47.4 µM (inactive); in the test with NCI-H23 it was > 100 µM (inactive); with NCI-H522, > 100 µM (inactive); in the test on OVCAR-4 it was > 100 µM (inactive); in the test with RPMI-8226, 97.9 µM (inactive). The GI50 with SF-268, in the test on SF-539, in the test on SK-MEL-2, with SN12C, in the test on SNB-19 and with T47D was > 100 µM (inactive) throughout. In addition, the GI50 in the test with UACC-62 was > 100 µM (inactive).

(Values after ChEMBL document CHEMBL1201862, “PubChem BioAssay data set” (2004).)
